Experimental findings from patent EP1935887A1, “Heterocyclic substituted carbonyl derivatives and their use as dopamine D3 receptor ligands” (Aventis Pharmaceuticals Inc., priority 2001, dated 2002) are described below.

Each structure is given as a SMILES string.

T2 sequence (P35462 whole entry): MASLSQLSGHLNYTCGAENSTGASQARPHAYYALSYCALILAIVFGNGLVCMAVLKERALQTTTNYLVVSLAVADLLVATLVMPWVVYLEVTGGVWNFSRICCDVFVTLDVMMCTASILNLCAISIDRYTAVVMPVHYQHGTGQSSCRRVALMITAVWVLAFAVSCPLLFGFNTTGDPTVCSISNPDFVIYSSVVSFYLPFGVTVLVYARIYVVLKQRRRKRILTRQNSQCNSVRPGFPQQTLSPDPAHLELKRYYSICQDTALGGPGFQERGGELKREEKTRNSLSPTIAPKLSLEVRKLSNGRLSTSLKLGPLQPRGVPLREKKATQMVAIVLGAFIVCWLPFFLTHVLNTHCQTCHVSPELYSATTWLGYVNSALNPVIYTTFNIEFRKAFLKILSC

One test addresses T1, CLONED HUMAN ALPHA-1A ADRENERGIC RECEPTORS (α1a) (Homo sapiens, UniProt P35348).
T1 construct: expressed in transfected cells; host or cells: CHO cells, G418-resistant clone #7, vector pcDNA3; membranes
T1 sequence (P35348 1-466): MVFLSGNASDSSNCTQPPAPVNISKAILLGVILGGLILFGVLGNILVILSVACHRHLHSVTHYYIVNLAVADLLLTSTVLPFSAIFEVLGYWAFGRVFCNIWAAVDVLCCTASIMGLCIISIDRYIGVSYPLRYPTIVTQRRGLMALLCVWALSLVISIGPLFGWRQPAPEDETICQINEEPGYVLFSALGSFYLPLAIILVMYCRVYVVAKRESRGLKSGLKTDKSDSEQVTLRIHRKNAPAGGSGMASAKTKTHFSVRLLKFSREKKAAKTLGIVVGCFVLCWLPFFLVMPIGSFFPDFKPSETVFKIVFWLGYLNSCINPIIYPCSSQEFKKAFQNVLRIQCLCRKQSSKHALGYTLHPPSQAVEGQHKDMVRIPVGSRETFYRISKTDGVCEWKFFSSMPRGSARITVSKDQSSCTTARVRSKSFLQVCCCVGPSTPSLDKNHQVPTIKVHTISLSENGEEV
As to the kind of experiment: [3H]Prazosin binding to cloned human alpha-1A adrenergic receptors expressed in CHO cells. Particulars: @ 0.1 nM. The source says: ^3H]PRAZOSIN BINDING TO CLONED HUMAN ALPHA-1A ADRENERGIC RECEPTORS (α1a) EXPRESSED IN CHINESE HAMSTER OVARY CELLS (CHO)
• purpose: This in vitro assay is designed as a screen to identify compounds displaying a affinity for the human α1a adrenoceptor subtype expressed in the membrane fragments of CHO cells. The assay measures the ability of the test compounds to displace [^3H] prazosin from α1a sites. The identification of multiple vascular α1-addrenoceptors (α1a, α1b, α1d) in vitro has provided impetus to define the role(s) of these subtypes in cardiovascular regulation in vivo (Vargas and Gorman, 1995). […] Therefore, the binding of compounds to α1a adrenergic receptors is believed to be a good measure of a compound's potential to cause orthostatic hypotension and sedation as side effects. Prazosin is a potent antagonist of the human α1a-adrenoceptor subtype, which has been cloned and is expressed in the membrane fragments of CHO cells. • hα1areceptor: The cloning of the human α1a cDNA was accomplished first by screening a human prostate cDNA library (Clontech), from which a portion of the coding region was obtained. This DNA fragment was then used to screen a human leukocyte genomic library (Clontech), and the rest of the coding sequence was obtained. Later these two fragments were spliced together. The entire coding sequence was then fully sequenced including matching PCR sequence with original genomic coding sequence, thus ensuring splice sites were joined correctly (Schwinn et al., 1995). Once sequenced, the gene was subcloned into the expression vector pcDNA3 (Invitrogen). Plasmid DNA was then used for transfection into CHO cells and G418 resistant clones were isolated. A clone expressing high levels of the hα1a receptor (as determined by mRNA and receptor binding data) was chosen and pharmacologically characterized. • Culture Media: Media Ingredients for Adherent α1a expressing CHO Culture: • A. HAM's F-12 (Cellgro) • B. 10% 0.2 micron filtered Fetal Bovine Serum (FBS)(Cellgro) • C. 1% 0.2 micron filtered Penicillin-Streptomycin (Cellgro) • D. G418 0.2 micron filtered (Geneticin 400µg/ml)(Cellgro) Cells are cultured using established methods and procedures in either 150x25mm culture plates (scale up to 100 plates) or a combination of these plates and 70 roller bottles. One culturing/harvest cycle typically requires 2 weeks and yields between 100-400mg protein. Plates or bottles are incubated at 37°C + 5% CO2. • Storage: Cells are harvested by mechanical scraping, washed using PBS, collected in 250ml Corning polypropylene centrifuge tubes, spun down (1500RPM) and resuspended in dH2O 10% DMSO (final volume per harvest is approximately 50ml). Protein determination is made using the Biorad DC Assay Kit. […] Bd. = 50µl 10µM phentolamine+50 µl [^3H]prazosin+100µl membrane Test Cpd. = 50µl compound + 50µl [^3H]prazosin + 100µl membrane Compounds to be evaluated are weighed out to yield a 10 mM stock solution in DMSO in a 24 well polystyrene plate. This is diluted to a 0.5 mM stock in dH2O. Serial dilutions in Buffer A are made from which 50 µl additions to the plate are made in duplicate in order to achieve the final concentrations desired. Typically, one 96 well plate is used to evaluate 11 compounds at 4 concentrations (10^-6-10^-9 M) in duplicate. Total binding and nonspecific binding are determined in quadruplicate. Usually one standard is run with each assay. [^3H]Prazosin is made up in Buffer A such that when 50 µl are added per well the final concentration is 1.0 nM in a final assay volume of 200 µl. The final concentration should be verified by running a sample in a scintillation counter prior to adding the [^3H]prazosin to the 96 well plate. Note: The radioactivity should be prepared just before the additions are made so that it is not allowed to sit on the bench for very long. […]
Turning to `O=C(CCCN1CCN(c2csc3cc(C(F)(F)F)ccc23)CC1)NC1CCCCC1` [compound 826821], the “halpha1 % I h=human” value is reported as 24% Inh @ 0.1 nM.

The same test, now with this note: @ 1 uM.
Turning to `C[C@H]1CC[C@H](NC(=O)CCCN2CCN(c3csc4cc(C(F)(F)F)ccc34)CC2)CC1` [compound 826804], the “halpha1 % I h=human” value was 32.8% Inh @ 1 uM.

On to `CCOC(=O)[C@H]1CC[C@H](NC(=O)CCCN2CCN(c3csc4cc(C(F)(F)F)ccc34)CC2)CC1` [compound 826805], for which the “halpha1 % I h=human” value is on record as 27.8% Inh @ 1 uM.

In the case of `CC[C@H]1CC[C@H](NC(=O)CCCN2CCN(c3csc4cc(C(F)(F)F)ccc34)CC2)CC1` [compound 826806], the “halpha1 % I h=human” value stood at 10.3% Inh @ 1 uM.

For `CCN(C(=O)CCCN1CCN(c2csc3cc(C(F)(F)F)ccc23)CC1)C1CCCCC1` [compound 826809], the “halpha1 % I h=human” value stood at 30.5% Inh @ 1 uM.

As to `CC1(C)CCCN(C(=O)CCCN2CCN(c3csc4cc(C(F)(F)F)ccc34)CC2)C1` [compound 826817], the “halpha1 % I h=human” value amounted to 44.4% Inh @ 1 uM.

The test is the same for the next values; noted with them: human alpha-1 receptor; read-out: halpha1Ki (nM) h=human.
In the case of `CC1CCCN(C(=O)CCCN2CCN(c3csc4cc(F)ccc34)CC2)C1` (stereo not drawn) [compound 826855], the Ki was found to be 0.689 nM.

Another test has as its target T2, Cloned Human Dopamine D3 Receptors (Homo sapiens, UniProt P35462).
T2 construct: expressed in transfected cells; membrane homogenate
As to the kind of experiment: [N-Methyl-3H]Spiroperidol binding to cloned human dopamine D3 receptors. Conditions: D3 Ki (nM). A digest of the protocol: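 [N-methyl-3H]spiroperidol binding is run in Tris buffer, pH 7.7. Receptor source is membranes of a stably transfected, high-expressing CHO clone carrying the human D3 gene, kept at -80°C in 10% DMSO.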
In the case of `O=C(NC1CCN(C(=O)Nc2ccc(F)cc2)CC1)[C@@H]1C[C@H]1CN1CCC(c2noc3ccsc23)CC1` [compound 833715], the Ki is 5.7 nM.

The molecule `Cn1nc(C2CCN(C[C@@H]3C[C@H]3C(=O)N[C@H]3CC[C@H](C)CC3)CC2)c2cc(C(F)(F)F)ccc21` [compound 833769] came in with a Ki of 1.63 nM.

Staying with this test, now noted: read-out: D3 Ki.
In the case of `COc1ccc2c(c1)c(N1CCN(C[C@@H]3C[C@H]3C(=O)NC[C@H]3CCN(C(=O)OC(C)(C)C)C3)CC1)nn2C` [compound 833630], the Ki turned out to be 52.1 nM.

`COc1ccc2c(c1)c(N1CCN(C[C@@H]3C[C@H]3C(=O)NCCCN(C)C)CC1)nn2C` [compound 833631]: the Ki was found to be 31.3 nM.

With `C[C@H]1CC[C@H](NC(=O)[C@@H]2C[C@H]2CN2CCC(c3csc4c(C(F)(F)F)cccc34)CC2)CC1` [compound 833690, 2R-[4-(7-Trifluoromethyl-benzo[b]thiophen-3-yl)-piperidin-1-ylmethyl]-1R-cyclopropanecarboxylic acid (trans-4-methyl-cyclohexyl)-amide], the Ki was found to be 7.97 nM.

Consider `C[C@H]1CC[C@H](NC(=O)[C@@H]2C[C@H]2CN2CCC(c3nc4cc(Cl)ccc4o3)CC2)CC1` [compound 833692], for which the Ki was determined as 72.9 nM.

On to `O=C(NCCCn1ccnc1)[C@@H]1C[C@H]1CN1CCN(c2csc3ncccc23)CC1` [compound 833821, 2R-(4-Thieno[2,3-b]pyridin-3-yl-piperazin-1-ylmethyl)-1R-cyclopropanecarboxylic acid (3-imidazol-1-yl-propyl)-amide], for which the Ki amounted to 6.91 nM.

`Cn1nc(N2CCN(C[C@@H]3C[C@H]3C(=O)NCCCn3ccnc3)CC2)c2ccccc21` [compound 833822]: the Ki is 0.64 nM.

`O=C(NCCCn1ccnc1)[C@@H]1C[C@H]1CN1CCN(c2nn(-c3ccc(F)cc3)c3ccccc23)CC1` [compound 833823]: the Ki was determined as 0.637 nM.

In the case of `C[C@H]1CC[C@H](NC(=O)[C@@H]2C[C@H]2CN2CCN(c3nn(-c4cccc(F)c4)c4ccsc34)CC2)CC1` [compound 833856], the Ki turned out to be 3.01 nM.

For the molecule `C[C@H]1CC[C@H](NC(=O)[C@@H]2C[C@H]2CN2CCN(c3nn(-c4ccc(OC(F)(F)F)cc4)c4ccsc34)CC2)CC1` [compound 833876], the Ki turned out to be 50.3 nM.

For `O=C(NCCCn1ccnc1)[C@@H]1C[C@H]1CN1CCC(c2csc3cc(C(F)(F)F)ccc23)CC1` [compound 834003], the Ki came out at 3.51 nM.

As for `C[C@H]1CC[C@H](NC(=O)[C@@H]2C[C@H]2CN2CCC(c3csc4cc(C(F)(F)F)ccc34)CC2)CC1` [compound 834016], the Ki amounted to 1.63 nM.

Consider `COc1cccc2c(C3CCN(C[C@@H]4C[C@H]4C(=O)N[C@H]4CC[C@H](C)CC4)CC3)nn(C)c12` [compound 834054], for which the Ki worked out at 13.8 nM.
